Measured values reported in article PMC5499580 (Nucleic Acids Research, 2017).

Columns and labels:
[1] = system: peptidyl transferase reaction; conditions: polyU-guided in vitro translation system; cited from earlier work
[2] = system: E. coli S30 extract translation system; format: biochemical; conditions: 5 μM, luciferase mRNA, 37°C, 30 min
ribosome [3] = assay: Toe-printing analysis; format: biochemical
VatB acetyltransferase = conditions: cited from earlier work
ribosome [4] = conditions: PURExpress, osmC mRNA; 50 μM; worded as known, no reference given; cited from earlier work
ribosome [5] = conditions: compared with MADU on osmC mRNA; cited from earlier work
23S rRNA mutation A2503G = conditions: cited from earlier work

## CC1=C\[C@@H](O)CC(=O)Cc2nc(co2)C(=O)N2CCC=C2C(=O)O[C@H](C(C)C)[C@H](C)/C=C/C(=O)NC\C=C\1 [virginiamycin M]
[1]
  Effect on peptidyl transferase reaction: specifically inhibits the peptidyl transferase reaction

## CC1=C\[C@@H](O)C[C@@H](O)Cc2nc(co2)C(=O)N[C@H](C)C(=O)O[C@H](C(C)C)[C@H](C)/C=C/C(=O)NC\C=C\1 [MADU, madumycin II]
[2]
  Reduction of the efficiency of protein synthesis: > 100 fold
Ribosome [3]; PURExpress cell-free system, osmC mRNA, 0.5, 5 and 50 μM MADU
  Ribosome stalling on osmC mRNA: dose-dependent ribosome stalling at the start codon
Ribosome [3]; PURExpress, 5 µM MADU, mutated osmC mRNAs
  Progression to second codon, Gly vs Ile second codon: noticeably more ribosomes progressing to the second codon in the case of glycine as compared with the isoleucine
VatB acetyltransferase
  Effect of VatB acetylation of C12-hydroxyl on activity: renders the drug inactive

## C=C(NC(=O)C(=C)NC(=O)c1csc(C2=N[C@@H]3c4csc(n4)[C@H]4NC(=O)c5csc(n5)[C@H]([C@](C)(O)[C@@H](C)O)NC(=O)[C@H]5CSC(=N5)/C(=C/C)NC(=O)[C@H]([C@@H](C)O)NC(=O)c5csc(n5)[C@]3(CC2)NC(=O)[C@H](C)NC(=O)C(=C)NC(=O)[C@H](C)NC(=O)[C@H]([C@@H](C)CC)N[C@@H]2C=Cc3c([C@H](C)O)cc(nc3[C@H]2O)C(=O)O[C@@H]4C)n1)C(N)=O [Thiostrepton, thiostrepton]
Ribosome [4]
  Ribosome stalling by positive control (first codon): stall ribosomes at the first codon

## CC1=C\[C@@H](O)CC(=O)Cc2nc(co2)C(=O)N2CCC[C@@H]2C(=O)O[C@H](C(C)C)[C@H](C)/C=C/C(=O)NC\C=C\1 [pristinamycin IIB]
Ribosome [5]
  Ribosome stalling in toe-printing: ribosome stalling at the start codon

## O=C(N[C@H](CO)[C@H](O)c1ccc([N+](=O)[O-])cc1)C(Cl)Cl [chloramphenicol]
23S rRNA mutation A2503G
  Resistance conferred by A2503G: confers resistance
